Assay results published in PubChem BioAssay AID1963968 (Molecular Pharmacology Branch, DTP, NCI, 2024).

Test system: 945468-187-T-J3-PDC spheroids with HUVEC/MSC, viability
Experiment: Anticancer human tumor 945468-187-T-J3-PDC patient-derived rectal carcinoma cell line growth inhibition [PI3K]
Details: for IC50: curve of first compound; for viability, T/C: stronger effect = lower value
Procedure, shortened: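 Targeted small molecules plus PI3K inhibitors, half-log dose series from Cmax (default top 10 microM), were applied to heterotypic spheroids of cancer cells with HUVEC and MSCs. Viability indicated growth inhibition.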

[1] = second compound 0.0316 µM, first compound 0.0316 µM
[2] = second compound 0.0316 µM, first compound 0.1 µM
[3] = second compound 0.0316 µM, first compound 0.316 µM
[4] = second compound 0.0316 µM, first compound 1 µM
[5] = second compound 0.0316 µM, first compound 3.16 µM
[6] = second compound 0.0316 µM, first compound 10 µM
[7] = second compound 0.1 µM, first compound 0.0316 µM
[8] = second compound 0.1 µM, first compound 0.1 µM
[9] = second compound 0.1 µM, first compound 0.316 µM
[10] = second compound 0.1 µM, first compound 1 µM
[11] = second compound 0.1 µM, first compound 3.16 µM
[12] = second compound 0.1 µM, first compound 10 µM
[13] = second compound 0.316 µM, first compound 0.0316 µM
[14] = second compound 0.316 µM, first compound 0.1 µM
[15] = second compound 0.316 µM, first compound 0.316 µM
[16] = second compound 0.316 µM, first compound 1 µM
[17] = second compound 0.316 µM, first compound 3.16 µM
[18] = second compound 0.316 µM, first compound 10 µM
[19] = second compound 1 µM, first compound 0.0316 µM
[20] = second compound 1 µM, first compound 0.1 µM
[21] = second compound 1 µM, first compound 0.316 µM
[22] = second compound 1 µM, first compound 1 µM
[23] = second compound 1 µM, first compound 3.16 µM
[24] = second compound 1 µM, first compound 10 µM
[25] = second compound 3.16 µM, first compound 0.0316 µM
[26] = second compound 3.16 µM, first compound 0.1 µM
[27] = second compound 3.16 µM, first compound 0.316 µM
[28] = second compound 3.16 µM, first compound 1 µM
[29] = second compound 3.16 µM, first compound 3.16 µM
[30] = second compound 3.16 µM, first compound 10 µM
[31] = second compound 10 µM, first compound 0.0316 µM
[32] = second compound 10 µM, first compound 0.1 µM
[33] = second compound 10 µM, first compound 0.316 µM
[34] = second compound 10 µM, first compound 1 µM
[35] = second compound 10 µM, first compound 3.16 µM
[36] = second compound 10 µM, first compound 10 µM
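Also: spheroids exposed to agents for 7 days before viability read.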
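For viability, T/C in this document: 100% = DMSO vehicle control viability.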

`C=CC(=O)N1CCN(c2nc(=O)n(-c3c(C)ccnc3C(C)C)c3nc(-c4c(O)cccc4F)c(F)cc23)C(C)C1` (centres undefined) + Cc1nc(NC(=O)N2CCCC2C(N)=O)sc1-c1ccnc(C(C)(C)C(F)(F)F)c1 was tested. Which IC50 (second compound 0.0316 µM) did it give?
The IC50 was greater than 10 µM.

What about the IC50 (second compound 0.1 µM) of the same molecule?
Its IC50 is greater than 10 µM.

And the IC50 (second compound 0.316 µM)?
Its IC50 is greater than 10 µM.

And the IC50 (second compound 1 µM)?
The IC50 was greater than 10 µM.

What about the IC50 (second compound 3.16 µM) of the same molecule?
The IC50 was greater than 10 µM.

What about the IC50 (second compound 10 µM) of the same molecule?
Its IC50 is greater than 10 µM.

And the viability, T/C [1]?
Its viability, T/C is 106%.

What about the viability, T/C [2] of the same molecule?
The viability, T/C was 108%.

And the viability, T/C [3]?
The viability, T/C was 102%.

What about the viability, T/C [4] of the same molecule?
The viability, T/C was 108%.

What about the viability, T/C [5] of the same molecule?
The viability, T/C was 110%.

And the viability, T/C [6]?
The viability, T/C was 114%.

And the viability, T/C [7]?
Its viability, T/C is 108%.

And the viability, T/C [8]?
The viability, T/C was 99.8%.

What about the viability, T/C [9] of the same molecule?
The viability, T/C was 103%.

And the viability, T/C [10]?
The viability, T/C was 109%.

And the viability, T/C [11]?
Its viability, T/C is 114%.

And the viability, T/C [12]?
Its viability, T/C is 99%.

What about the viability, T/C [13] of the same molecule?
The viability, T/C was 103%.

And the viability, T/C [14]?
Its viability, T/C is 102%.

What about the viability, T/C [15] of the same molecule?
Its viability, T/C is 100%.

What about the viability, T/C [16] of the same molecule?
The viability, T/C was 115%.

And the viability, T/C [17]?
Its viability, T/C is 105%.

And the viability, T/C [18]?
Its viability, T/C is 98.6%.

And the viability, T/C [19]?
The viability, T/C was 126%.

And the viability, T/C [20]?
Its viability, T/C is 118%.

And the viability, T/C [21]?
The viability, T/C was 102%.

What about the viability, T/C [22] of the same molecule?
The viability, T/C was 123%.

What about the viability, T/C [23] of the same molecule?
Its viability, T/C is 122%.

And the viability, T/C [24]?
The viability, T/C was 107%.

And the viability, T/C [25]?
Its viability, T/C is 110%.

And the viability, T/C [26]?
The viability, T/C was 109%.

And the viability, T/C [27]?
The viability, T/C was 112%.

And the viability, T/C [28]?
The viability, T/C was 108%.

And the viability, T/C [29]?
The viability, T/C was 113%.

What about the viability, T/C [30] of the same molecule?
The viability, T/C was 115%.

And the viability, T/C [31]?
Its viability, T/C is 71.1%.

What about the viability, T/C [32] of the same molecule?
Its viability, T/C is 64.5%.

And the viability, T/C [33]?
The viability, T/C was 58.3%.

And the viability, T/C [34]?
Its viability, T/C is 67.5%.

And the viability, T/C [35]?
Its viability, T/C is 90.8%.

What about the viability, T/C [36] of the same molecule?
Its viability, T/C is 79.1%.

For `CC(C)NCC(C(=O)N1CCN(c2ncnc3c2C(C)CC3O)CC1)c1ccc(Cl)cc1` (centres undefined) + Cc1nc(NC(=O)N2CCCC2C(N)=O)sc1-c1ccnc(C(C)(C)C(F)(F)F)c1, which IC50 (second compound 0.0316 µM) is on record?
The IC50 was greater than 10 µM.

What about the IC50 (second compound 0.1 µM) of the same molecule?
Its IC50 is greater than 10 µM.

What about the IC50 (second compound 0.316 µM) of the same molecule?
Its IC50 is 5.36 µM.

And the IC50 (second compound 1 µM)?
The IC50 was 2.9 µM.

And the IC50 (second compound 3.16 µM)?
The IC50 was 1.71 µM.

What about the IC50 (second compound 10 µM) of the same molecule?
The IC50 was 0.303 µM.

And the viability, T/C [1]?
The viability, T/C was 109%.

And the viability, T/C [2]?
The viability, T/C was 116%.

And the viability, T/C [3]?
The viability, T/C was 84.4%.

And the viability, T/C [4]?
Its viability, T/C is 94.1%.

And the viability, T/C [5]?
The viability, T/C was 76.9%.

What about the viability, T/C [6] of the same molecule?
The viability, T/C was 55%.

What about the viability, T/C [7] of the same molecule?
Its viability, T/C is 103%.

And the viability, T/C [8]?
Its viability, T/C is 101%.

What about the viability, T/C [9] of the same molecule?
The viability, T/C was 93.3%.

What about the viability, T/C [10] of the same molecule?
The viability, T/C was 91.8%.

What about the viability, T/C [11] of the same molecule?
Its viability, T/C is 80.6%.

And the viability, T/C [12]?
The viability, T/C was 54.6%.

And the viability, T/C [13]?
The viability, T/C was 114%.

And the viability, T/C [14]?
Its viability, T/C is 104%.

What about the viability, T/C [15] of the same molecule?
Its viability, T/C is 99.4%.

What about the viability, T/C [16] of the same molecule?
The viability, T/C was 88.3%.

What about the viability, T/C [17] of the same molecule?
Its viability, T/C is 60%.

What about the viability, T/C [18] of the same molecule?
The viability, T/C was 36.4%.

What about the viability, T/C [19] of the same molecule?
Its viability, T/C is 99.6%.

And the viability, T/C [20]?
The viability, T/C was 104%.

What about the viability, T/C [21] of the same molecule?
The viability, T/C was 91.9%.

And the viability, T/C [22]?
The viability, T/C was 80.7%.

What about the viability, T/C [23] of the same molecule?
Its viability, T/C is 46.5%.

And the viability, T/C [24]?
The viability, T/C was 32.6%.

What about the viability, T/C [25] of the same molecule?
The viability, T/C was 92.6%.

What about the viability, T/C [26] of the same molecule?
Its viability, T/C is 87.8%.

And the viability, T/C [27]?
Its viability, T/C is 82.1%.

And the viability, T/C [28]?
The viability, T/C was 59.3%.

And the viability, T/C [29]?
The viability, T/C was 38.9%.

What about the viability, T/C [30] of the same molecule?
Its viability, T/C is 27.1%.

And the viability, T/C [31]?
Its viability, T/C is 68.9%.

And the viability, T/C [32]?
Its viability, T/C is 54.6%.

What about the viability, T/C [33] of the same molecule?
The viability, T/C was 51%.

What about the viability, T/C [34] of the same molecule?
The viability, T/C was 45%.

What about the viability, T/C [35] of the same molecule?
The viability, T/C was 36.9%.

And the viability, T/C [36]?
The viability, T/C was 33.2%.
